Source: patent publication US20040102485A1, “Tartrate salt of thiazolidinedione derivative” (priority 2003, published 2004)

Assay: Solid state stability of the Meso-Tartrate (storage in glass bottle, HPLC assay for final content and degradation products)
Format: physicochemical
Conditions: 1 month
Method: Solid State Stability of the Meso-Tartrate, recorded for the product of Example 1 The solid state stability of the drug substance was determined by storing approximately 1.0 g of the material in a glass bottle at i) 40° C./75% Relative Humidity (RH), open exposure, for 1 month and b) at 50° C., closed, for 1 month. The material was assayed by HPLC for final content and degradation products in both cases.

[1] = 40° C./75% Relative Humidity (RH), open exposure

CN(CCOc1ccc(CC2SC(=O)NC2=O)cc1)c1ccccn1.O=C(O)C(O)C(O)C(=O)O (stereo not drawn) [Example 1, 5-[4-[2-(N-methyl-N-(2-pyridyl)amino)ethoxy]benzyl]thiazolidine-2,4-dione Meso-Tartrate]
HPLC assay (final content) [1]: 97 % initial | degradation (HPLC, degradation products) [1]: No significant degradation observed | HPLC assay (final content) (50° C., closed): 98 % initial | degradation (HPLC, degradation products) (50° C., closed): No significant degradation observed
